For test [1], the target named is T1, system Xc^− (Homo sapiens, UniProt Q9UPY5).
T1 sequence (Q9UPY5 1-501): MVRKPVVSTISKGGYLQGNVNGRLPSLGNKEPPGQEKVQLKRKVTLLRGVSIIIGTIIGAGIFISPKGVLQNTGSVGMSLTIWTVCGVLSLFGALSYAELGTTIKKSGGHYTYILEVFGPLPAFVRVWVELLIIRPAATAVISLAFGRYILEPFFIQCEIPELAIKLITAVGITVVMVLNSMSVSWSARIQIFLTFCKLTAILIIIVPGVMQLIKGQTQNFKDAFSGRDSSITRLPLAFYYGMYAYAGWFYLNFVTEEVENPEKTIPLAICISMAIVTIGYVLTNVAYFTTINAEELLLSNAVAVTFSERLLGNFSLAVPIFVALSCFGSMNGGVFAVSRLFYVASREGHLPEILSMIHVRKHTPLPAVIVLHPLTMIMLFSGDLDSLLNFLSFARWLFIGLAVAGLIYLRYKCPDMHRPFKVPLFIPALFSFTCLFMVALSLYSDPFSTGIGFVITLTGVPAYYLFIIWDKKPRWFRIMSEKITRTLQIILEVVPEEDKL
T1 sequence (P08195 1-529 partner): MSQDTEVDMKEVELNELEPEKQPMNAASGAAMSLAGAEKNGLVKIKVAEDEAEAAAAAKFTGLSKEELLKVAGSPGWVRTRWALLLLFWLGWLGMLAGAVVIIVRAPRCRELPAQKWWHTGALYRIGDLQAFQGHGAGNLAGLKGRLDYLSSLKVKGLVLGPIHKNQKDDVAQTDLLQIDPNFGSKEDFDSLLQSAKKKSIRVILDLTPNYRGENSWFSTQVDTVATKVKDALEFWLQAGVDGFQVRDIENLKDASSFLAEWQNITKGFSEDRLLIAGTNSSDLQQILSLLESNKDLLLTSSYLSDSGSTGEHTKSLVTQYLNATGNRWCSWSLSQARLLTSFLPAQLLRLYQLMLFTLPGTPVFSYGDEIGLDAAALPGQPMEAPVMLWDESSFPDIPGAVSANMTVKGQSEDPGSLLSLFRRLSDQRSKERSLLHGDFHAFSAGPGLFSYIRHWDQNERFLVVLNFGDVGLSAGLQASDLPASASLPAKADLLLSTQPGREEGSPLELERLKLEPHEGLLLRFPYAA
As to conditions: background statement, no data given; cited from earlier work.

The target in test [2] is T1, system Xc^−. Nature of the test: Cystine-induced glutamate release assay. The test is classed as cell-based. Also on record: endogenous in cells; host or cells: H4 cells. As to conditions: H4 cells, sodium-free HEPES buffer, 50 μM L-Cystine, 2 hours, Amplex Red glutamate readout; read-out: pIC50 Cystine-induced glutamate release assay (converted). The gist of the method: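 H4 cells in sodium-free HEPES buffer (pH 7.4), 2 days after plating; glutamate release induced with 50 μM L-cystine plus compound (1% DMSO), 2 h at 37 °C. Supernatant glutamate measured by Amplex Red fluorescence; IC50/pIC50 derived between 1% DMSO and 50 μM erastin controls.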

Test [3] addresses T1, system Xc^−. Description: [^14C]L-Cystine uptake assay. Type of test: cell-based. Also on record: endogenous in cells; host or cells: H4 cells. As to conditions: H4 cells, sodium-free HEPES buffer, 0.5 μM L-[14C]Cystine and 4.5 μM L-Cystine, 1 hour at 37° C.; read-out: pIC50 [^14C] L-Cystine uptake assay (converted). In a few lines:
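H4 cells at 5×10^4 cells/well in sodium-free HEPES buffer were preincubated 15 min with compounds (1% DMSO). Uptake of 0.5 μM [14C]L-cystine plus 4.5 μM unlabelled L-cystine ran 1 hour at 37° C on scintillating plates. IC50 was set between 1% DMSO and 50 μM Erastin controls and expressed as pIC50.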

The source of these data is US20260217708A1, “FUSED BENZAZEPINE DERIVATIVES FOR USE IN THE TREATMENT OF CANCER AND EPILEPSY” (UCB BIOPHARMA SRL, priority 2023, published 2026).

Each structure is given as a SMILES string.

For the molecule `O=C(O)c1cc(/N=N/c2ccc(S(=O)(=O)Nc3ccccn3)cc2)ccc1O` [Sulfasalazine], in test [1], the “inhibition of the System Xc− antiporter” value is reported as “non-selective inhibitor” and the “potency on human System Xc− function” value is “low”.

For `O=C(CN1C(=O)Cc2cc(F)ccc2-c2c1ccnc2Cl)Nc1ccc(C(F)(F)F)cc1` [#51, 2-(1-chloro-9-fluoro-6-oxo-7H-pyrido[4,3-d][3]benzazepin-5-yl)-N-[4-(trifluoromethyl)-phenyl]acetamide], the IC50 was 39.8 to 100 nM in test [2] and below 15.8 nM in test [3].

For the molecule `COc1nc(C)cc2c1-c1cncnc1CC(=O)N2CC(=O)Nc1ccc(C(F)(F)F)cc1` [#98, 2-(15-methoxy-13-methyl-9-oxo-4,6,10,14-tetrazatricyclo[9.4.0.0^2,7]pentadeca-1(15),2(7),3,5,11,13-hexaen-10-yl)-N-[4-(trifluoromethyl)phenyl]acetamide], the figures for the IC50 in test [2] and in test [3] were 39.8 to 100 nM and 15.8 to 39.8 nM, respectively.

On to `CC1C(=O)N(CC(=O)Nc2ccc(Cl)c(F)c2)c2ccn(C)c(=O)c2-c2ccc(F)cc21` (single isomer, unassigned) [#364, N-(4-chloro-3-fluoro-phenyl)-2-[-9-fluoro-2,7-dimethyl-1,6-dioxo-7H-pyrido[4,3-d][3]benzazepin-5-yl]acetamide], for which the IC50 in test [2] is 15.8 to 39.8 nM; in test [3] it was below 15.8 nM.

Turning to `Cc1cc2c(c(F)n1)-c1cccnc1[C@@H](C)C(=O)N2CC(=O)Nc1ccc2c(cnn2C)c1` [#141, 2-[(10R)-3-fluoro-5,10-dimethyl-9-oxo-4,8,12-triazatricyclo[9.4.0.0^2,7]pentadeca-1(11),2(7),3,5,12,14-hexaen-8-yl]-N-(1-methylindazol-5-yl)acetamide], the IC50 in test [2] and in test [3] was 15.8 to 39.8 nM each time.

For `Cc1cc2c(cn1)-c1cc(F)cnc1C(C)C(=O)N2CC(=O)Nc1ccc(C(F)F)cc1` (single isomer, unassigned) [#328, N-[4-(difluoromethyl)phenyl]-2-[14-fluoro-5,10-dimethyl-9-oxo-4,8,12-triazatricyclo[9.4.0.0^2,7]pentadeca-1(15),2,4,6,11,13-hexaen-8-yl]acetamide], the results for the IC50 in test [2] and in test [3] were below 15.8 nM and 15.8 to 39.8 nM, respectively.

For the molecule `O=C(CN1C(=O)Cc2ncccc2-c2c1cc(N1CC3(CC3)C1)nc2F)Nc1ccc(C(F)F)cc1` [#294, 2-[5-(5-azaspiro[2.3]hexan-5-yl)-3-fluoro-9-oxo-4,8,12-triazatricyclo[9.4.0.0^2,7]pentadeca-1(15),2,4,6,11,13-hexaen-8-yl]-N-[4-(difluoromethyl)phenyl]acetamide], the values for the IC50 in test [2] and in test [3] were 15.8 to 39.8 nM and 39.8 to 100 nM, respectively.

Regarding `COc1nc(C)cc2c1-c1ccnn1CC(=O)N2CC(=O)Nc1ccc(C(F)(F)F)cc1` [#99, 2-(14-methoxy-12-methyl-8-oxo-5,6,9,13-tetrazatricyclo[8.4.0.0^2,6]tetradeca-1(14),2,4,10,12-pentaen-9-yl)-N-[4-(trifluoromethyl)phenyl]acetamide], the IC50 is 39.8 to 100 nM in test [2] and 100 to 501 nM in test [3].

On to `Cc1cc2c(cn1)-c1cccnc1C(C)C(=O)N2CC(=O)Nc1ccc(F)c(Cl)c1` (single isomer, unassigned) [#253, N-(3-chloro-4-fluoro-phenyl)-2-(5,10-dimethyl-9-oxo-4,8,12-triazatricyclo[9.4.0.0^2,7]pentadeca-1(11),2(7).3,5,12,14-hexaen-8-yl)acetamide], for which the IC50 in test [2] and in test [3] was 39.8 to 100 nM in each case.

Take `Cc1cc2c(c(C)n1)-c1cccc(F)c1CC(=O)N2CC(=O)Nc1ccc(C(F)(F)F)cc1` [#64, 2-(8-fluoro-1,3-dimeth-yl-6-oxo-7H-pyrido [4,3-d][3]benzazepin-5-yl)-N-[4-(trifluorometh-yl)phenyl]acetamide]: the IC50 was 15.8 to 39.8 nM in test [2] and below 15.8 nM in test [3].

Turning to `Cc1ccc(NC(=O)CN2C(=O)Cc3cccnc3-c3cnc(Cl)cc32)cc1Cl` [#18, N-(3-chloro-4-methyl-phenyl)-2-(13-chloro-9-oxo-3,10,14-triazatricyclo[9.4.0.0^2,7]pentadeca-1(11),2(7),3,5,12,14-hexaen-10-yl)acetamide], the IC50 in test [2] and in test [3] was 100 to 501 nM throughout.

For `O=C(CN1C(=O)C(CO)c2ncccc2-c2c(F)cc(F)cc21)Nc1ccc(Cl)c(F)c1` (single isomer, unassigned) [#381, N-(4-chloro-3-fluoro-phenyl)-2-[9,11-difluoro-5-(hydroxymethyl)-6-oxo-5H-pyrido[2,3-d][1]benzazepin-7-yl]acetamide], the IC50 in test [2] was 39.8 to 100 nM; in test [3] it was 100 to 501 nM.

`Cc1cc2c(c(Cl)n1)-c1cccnc1C(C)C(=O)N2CC(=O)Nc1ccc(Br)cc1F` (single isomer, unassigned) [#227, Enantiomer (10S) or (10R) of N-(4-bromo-2-fluoro-phenyl)-2-[3-chloro-5,10-dimethyl-9-oxo-4,8,12-triazatricyclo[9.4.0.0^2,7]pentadeca-1(11),2(7),3,5,12,14-hexaen-8-yl]acetamide]: the IC50 in test [2] was below 15.8 nM; in test [3], 15.8 to 39.8 nM.

Take `Cc1cc2c(c(F)n1)-c1cccnc1C(C)C(=O)N2CC(=O)Nc1ccc(C(F)(F)F)cc1` (stereo not drawn) [#84, 2-(3-fluoro-5,10-dimethyl-9-oxo-4,8,12-triazatricyclo[9.4.0.0^2,7]pentadeca-1(11),2(7),3,5,12,14-hexaen-8-yl)-N-[4-(trifluoromethyl)phenyl]acetamide]: the results for the IC50 in test [2] and in test [3] were 15.8 to 39.8 nM and below 15.8 nM, respectively.

Consider `Cc1cc2c(c(F)n1)-c1ncc(F)cc1C(C)C(=O)N2CC(=O)Nc1ccc(C(F)F)cc1` (single isomer, unassigned) [#304, 2-[5,15-difluoro-8,13-dimethyl-9-oxo-3,10,14-triazatricyclo[9.4.0.0^2,7]pentadeca-1(15),2,4,6,11,13-hexaen-10-yl]-N-[4-(difluoromethyl)phenyl]acetamide], for which the IC50 in test [2] and in test [3] was 15.8 to 39.8 nM each time.

With `COc1cc2c(c(C)n1)-c1cccnc1C(C)C(=O)N2CC(=O)Nc1ccc(Cl)c(F)c1` (single isomer, unassigned) [#300, N-(4-chloro-3-fluoro-phenyl)-2-[5-methoxy-3,10-dimethyl-9-oxo-4,8,12-triazatricyclo[9.4.0.0^2,7]pentadeca-1(15),2(7),3,5,11,13-hexaen-8-yl]acetamide], the IC50 in test [2] and in test [3] was below 15.8 nM in each case.

As for `COc1cc2c(c(C)n1)-c1cccnc1C(C)C(=O)N2CC(=O)Nc1ccc(C(F)F)cc1` (single isomer, unassigned) [#299, N-[4-(difluoromethyl)phenyl]-2-[5-methoxy-3,10-dimethyl-9-oxo-4,8,12-triazatricyclo[9.4.0.0^2,7]pentadeca-1(15),2(7),3,5,11,13-hexaen-8-yl]acetamide], the IC50 in test [2] and in test [3] was below 15.8 nM throughout.

Consider `Cc1cc2c(c(=O)n1C)-c1cccnc1[C@@H](C)C(=O)N2CC(=O)Nc1ccc(C(F)(F)F)cc1` (single isomer, unassigned) [#178, Enantiomer (10R) or (10S) of N-[4-(trifluoromethyl)phenyl]-2-[4,5,10-trimethyl-3,9-dioxo-4,8,12-triazatricyclo[9.4.0.0^2,7]pentadeca-1(15),2(7),5,11,13-pentaen-8-yl]acetamide], for which the IC50 in test [2] and in test [3] was below 15.8 nM each time.
